Reference: patent US9878986B2, “Compounds for selective histone deacetylase inhibitors, and pharmaceutical composition comprising the same” (CHONG KUN DANG PHARMACEUTICAL CORP., priority 2013, dated 2018)
Where a name gives a salt, the structure may show the parent alone.

Experiments:
HDAC1 = HDAC1 (Homo sapiens, UniProt Q13547); test: Test of HDAC activities, HDAC1 Fluorimetric Drug Discovery Assay Kit; assay type: biochemical; parameters: purchased Enzolifesciences BML-AK511; conditions: samples at 100, 1000, 10000 nM; 37° C. 60 minutes; fluorescence Ex 390, Em 460; read-out: HDAC inhibitory activities, HDAC1
Sequence of HDAC1 (Q13547 whole entry): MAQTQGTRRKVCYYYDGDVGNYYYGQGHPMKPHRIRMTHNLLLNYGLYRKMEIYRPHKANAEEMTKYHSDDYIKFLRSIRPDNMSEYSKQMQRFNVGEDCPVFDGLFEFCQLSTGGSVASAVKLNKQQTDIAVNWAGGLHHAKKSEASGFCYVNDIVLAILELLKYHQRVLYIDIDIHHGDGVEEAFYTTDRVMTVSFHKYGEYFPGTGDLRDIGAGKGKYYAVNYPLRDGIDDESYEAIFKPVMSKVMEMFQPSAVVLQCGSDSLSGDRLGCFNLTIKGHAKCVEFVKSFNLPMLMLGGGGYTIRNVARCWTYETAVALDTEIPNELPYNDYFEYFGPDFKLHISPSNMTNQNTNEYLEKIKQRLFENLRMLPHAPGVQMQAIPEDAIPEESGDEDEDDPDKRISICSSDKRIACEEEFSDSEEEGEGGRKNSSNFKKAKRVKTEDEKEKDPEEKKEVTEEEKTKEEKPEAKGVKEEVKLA
Summary of the method: (§1)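 HDAC1 tested at 100, 1000 and 10000 nM; recombinant human HDAC6 at 0.1, 1, 10, 100 and 1000 nM. Reaction 60 min at 37° C, then developer for 30 min at 37° C; fluorescence read at Ex 390/Em 460.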

HDAC 6 = target: T1, HDAC 6 (Homo sapiens, UniProt Q9UBN7); test: Test of HDAC activities, HDAC6 (fluorimetric); assay type: biochemical; parameters: purchased Calbiochem 382180; conditions: samples at 0.1, 1, 10, 100, 1000 nM; 37° C. 60 minutes; fluorescence Ex 390, Em 460; read-out: HDAC inhibitory activities, HDAC6
T1 sequence (Q9UBN7 1-1215): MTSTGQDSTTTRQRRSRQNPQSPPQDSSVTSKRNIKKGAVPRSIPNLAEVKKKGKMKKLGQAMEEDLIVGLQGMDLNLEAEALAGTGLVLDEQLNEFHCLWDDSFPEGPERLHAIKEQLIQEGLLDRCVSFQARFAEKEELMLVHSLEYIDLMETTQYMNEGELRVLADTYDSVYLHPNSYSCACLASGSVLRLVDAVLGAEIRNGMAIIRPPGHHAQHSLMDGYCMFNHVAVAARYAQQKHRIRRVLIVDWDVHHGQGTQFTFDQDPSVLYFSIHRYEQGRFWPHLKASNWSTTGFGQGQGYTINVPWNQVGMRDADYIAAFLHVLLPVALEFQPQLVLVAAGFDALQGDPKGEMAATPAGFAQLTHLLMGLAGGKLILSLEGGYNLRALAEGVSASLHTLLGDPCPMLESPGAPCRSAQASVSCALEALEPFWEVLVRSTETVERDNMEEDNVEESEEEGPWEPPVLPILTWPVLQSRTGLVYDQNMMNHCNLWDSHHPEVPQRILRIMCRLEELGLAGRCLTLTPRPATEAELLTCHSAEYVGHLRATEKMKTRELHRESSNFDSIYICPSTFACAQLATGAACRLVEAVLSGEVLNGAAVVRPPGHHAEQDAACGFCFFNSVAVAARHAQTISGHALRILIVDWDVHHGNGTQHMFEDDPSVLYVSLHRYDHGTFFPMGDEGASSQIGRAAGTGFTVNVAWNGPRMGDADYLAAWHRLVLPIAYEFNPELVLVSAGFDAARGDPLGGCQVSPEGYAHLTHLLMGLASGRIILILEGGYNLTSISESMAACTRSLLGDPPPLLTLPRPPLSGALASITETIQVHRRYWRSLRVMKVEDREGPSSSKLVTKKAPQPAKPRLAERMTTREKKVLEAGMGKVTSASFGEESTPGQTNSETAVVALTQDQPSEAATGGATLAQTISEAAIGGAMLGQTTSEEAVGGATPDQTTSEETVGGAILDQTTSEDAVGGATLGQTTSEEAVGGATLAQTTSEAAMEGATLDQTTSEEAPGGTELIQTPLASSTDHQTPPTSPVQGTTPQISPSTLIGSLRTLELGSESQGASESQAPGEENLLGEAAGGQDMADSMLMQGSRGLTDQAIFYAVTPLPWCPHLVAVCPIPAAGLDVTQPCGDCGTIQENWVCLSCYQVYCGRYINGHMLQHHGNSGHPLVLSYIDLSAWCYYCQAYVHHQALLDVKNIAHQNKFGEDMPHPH
Summary of the method: as §1

IC50 (HDAC1)	IC50 (HDAC 6)	Structure (SMILES)
604 nM	3 nM	CCN1CCN(C(=O)N(Cc2ccc(C(=O)NO)cc2)c2ccc(C)cc2F)CC1 [Compound 453, 4-ethyl-N-(2-fluoro-4-methylphenyl)-N-(4-(hydroxycarbamoyl)benzyl)piperazine-1-carboxamide]
860 nM	8 nM	O=C(NO)c1ccc(CN(C(=O)N2CC(F)(F)C2)c2ccc(C(F)(F)F)cc2)cc1 [Compound 485, 3,3-difluoro-N-(4-(hydroxycarbamoyl)benzyl)-N-(4-(trifluoromethyl)phenyl)azetidine-1-carboxamide]
1450 nM	14 nM	O=C(NO)c1ccc(CN(C(=O)N2CCOCC2)c2cccc(C3=CCOCC3)c2)c(F)c1 [Compound 512, N-(3-(3,6-dihydro-2H-pyran-4-yl)phenyl)-N-(2-fluoro-4-(hydroxycarbamoyl)benzyl)morpholine-4-carboxamide]
1260 nM	5 nM	O=C(NO)c1ccc(CN(C(=O)N2CCOCC2)c2ccccn2)cc1 [Compound 280, N-(4-(hydroxycarbamoyl)benzyl)-N-(pyridin-2-yl)morpholine-4-carboxamide]
1170 nM	10 nM	CC1CN(C(=O)N(Cc2ccc(C(=O)NO)cc2)c2cccc(-c3ccc4c(c3)OCO4)c2)CC(C)O1 (centres unmarked) [Compound 464, N-(3-(benzo[d][1,3]dioxol-5-yl)phenyl)-N-(4-(hydroxycarbamoyl)benzyl)-2,6-dimethylmorpholine-4-carboxamide]
633 nM	78 nM	CC1CN(C(=O)N(Cc2ccc(C(=O)NO)cc2)c2cccc(OC(F)(F)F)c2)CC(C)O1 (centres unmarked) [Compound 800, N-(4-(hydroxycarbamoyl)benzyl)-2,6-dimethyl-N-(3-(trifluoromethoxy)phenyl)morpholine-4-carboxamide]
1240 nM	15 nM	O=C(NO)c1ccc(CN(C(=O)N2CCC(O)CC2)c2cccc(C3=CCOCC3)c2)c(F)c1 [Compound 514, N-(3-(3,6-dihydro-2H-pyran-4-yl)phenyl)-N-(2-fluoro-4-(hydroxycarbamoyl)benzyl)-4-hydroxypiperidine-1-carboxamide]
310 nM	4 nM	CS(=O)(=O)N1CC=C(c2cccc(N(Cc3ccc(C(=O)NO)cc3)C(=O)N3CCOCC3)c2)CC1 [Compound 420, N-(4-(hydroxycarbamoyl)benzyl)-N-(3-(1-(methylsulfonyl)-1,2,3,6-tetrahydropyridin-4-yl)phenyl)morpholine-4-carboxamide]
1980 nM	6 nM	Cc1ccc(N(Cc2ccc(C(=O)NO)cc2)C(=O)N2CCN(c3ccc(F)cc3)CC2)c(F)c1 [Compound 455, N-(2-fluoro-4-methylphenyl)-4-(4-fluorophenyl)-N-(4-(hydroxycarbamoyl)benzyl)piperazine-1-carboxamide]
545 nM	1.4 nM	O=C(NO)c1ccc(CN(C(=O)N2CCN(Cc3ccccc3)CC2)c2cccc(C(F)(F)F)c2)cc1 [Compound 683, 4-benzyl-N-(4-(hydroxycarbamoyl)benzyl)-N-(3-(trifluoromethyl)phenyl)piperazine-1-carboxamide]
545 nM	17 nM	O=C(NO)c1ccc(CN(C(=O)N2CCN(CC(=O)N3CCOCC3)CC2)c2ccc(C(F)(F)F)cc2)cc1 [Compound 545, N-(4-(hydroxycarbamoyl)benzyl)-4-(2-morpholino-2-oxoethyl)-N-(4-(trifluoromethyl)phenyl)piperazine-1-carboxamide]
261 nM	10 nM	O=C(NO)c1ccc(CN(C(=O)N2CC[C@H](F)C2)c2ccc(C(F)(F)F)cc2)cc1 [Compound 521, (S)-3-fluoro-N-(4-(hydroxycarbamoyl)benzyl)-N-(4-(trifluoromethyl)phenyl)pyrrolidine-1-carboxamide]
22900 nM	13 nM	O=C(NO)c1ccc(CN(C(=O)N2CCC(O)(c3ccccc3)CC2)c2ncccn2)cc1 [Compound 311, 4-hydroxy-N-(4-(hydroxycarbamoyl)benzyl)-4-phenyl-N-(pyrimidin-2-yl)piperidine-1-carboxamide]
5320 nM	213 nM	C[C@@H]1CN(C(=O)N(Cc2ccc(C(=O)NO)cc2)c2cccc(C(F)(F)F)c2)C[C@H](C)N1CC(F)(F)C(F)(F)F [Compound 803, (3S,5R)—N-(4-(hydroxycarbamoyl)benzyl)-3,5-dimethyl-4-(2,2,3,3,3-pentafluoropropyl)-N-(3-(trifluoromethyl)phenyl)piperazine-1-carboxamide]
936 nM	2 nM	O=C(NO)c1ccc(CN(C(=O)N2CCC[C@@H]2CO)c2cccc(C(F)(F)F)c2)cc1 [Compound 497, (R)—N-(4-(hydroxycarbamoyl)benzyl)-2-(hydroxymethyl)-N-(3-(trifluoromethyl)phenyl)pyrrolidine-1-carboxamide]
2280 nM	9 nM	O=C(NO)c1ccc(CN(C(=O)N2CCC(O)(c3ccccc3)CC2)c2cccc(-c3ccc4c(c3)OCO4)c2)cc1 [Compound 465, N-(3-(benzo[d][1,3]dioxol-5-yl)phenyl)-4-hydroxy-N-(4-(hydroxycarbamoyl)benzyl)-4-phenylpiperidine-1-carboxamide]
860 nM	0.4 nM	O=C(NO)c1ccc(CN(C(=O)N2CCOCC2)c2ccc(F)cc2F)cc1 [Compound 413, N-(2,4-difluorophenyl)-N-(4-(hydroxycarbamoyl)benzyl)morpholine-4-carboxamide]
4810 nM	5 nM	O=C(NO)c1ccc(CN(C(=O)N2CCN(C(=O)C3CC3)CC2)c2ccccn2)cc1 [Compound 451, 4-(cyclopropanecarbonyl)-N-(4-(hydroxycarbamoyl)benzyl)-N-(pyridin-2-yl)piperazine-1-carboxamide]
883 nM	11 nM	O=C(NO)c1ccc(CN(C(=O)N2CCOCC2)c2cccc(C3CCNCC3)c2)cc1 [Compound 493, N-(4-(hydroxycarbamoyl)benzyl)-N-(3-(piperidin-4-yl)phenyl)morpholine-4-carboxamide hydrochloride]
302 nM	7 nM	O=C(NO)c1ccc(CN(C(=O)N2CCOCC2)c2cccc(-c3ccc4c(c3)OCCO4)c2)cc1 [Compound 399, N-(3-(2,3-dihydrobenzo[b][1,4]dioxin-6-yl)phenyl)-N-(4-(hydroxycarbamoyl)benzyl)morpholine-4-carboxamide]
1600 nM	8.2 nM	O=C(NO)c1ccc(CN(C(=O)N2CC[C@H](F)C2)c2cccc(C(F)(F)F)n2)cc1 [Compound 829, (S)-3-fluoro-N-(4-(hydroxycarbamoyl)benzyl)-N-(6-(trifluoromethyl)pyridin-2-yl)pyrrolidine-1-carboxamide]
3360 nM	5 nM	CC1CCN(C(=O)N(Cc2ccc(C(=O)NO)cc2)c2ccc(F)c(Cl)c2)CC1 [Compound 457, N-(3-chloro-4-fluorophenyl)-N-(4-(hydroxycarbamoyl)benzyl)-4-methylpiperidine-1-carboxamide]
4980 nM	19 nM	COc1cccc(N2CCN(C(=O)N(Cc3ccc(C(=O)NO)cc3)c3cccc(C(F)(F)F)c3)CC2)c1 [Compound 684, N-(4-(hydroxycarbamoyl)benzyl)-4-(3-methoxyphenyl)-N-(3-(trifluoromethyl)phenyl)piperazine-1-carboxamide]
3910 nM	9 nM	CCN1CCN(C(=O)N(Cc2ccc(C(=O)NO)cc2)c2ccccn2)CC1 [Compound 354, 4-ethyl-N-(4-(hydroxycarbamoyl)benzyl)-N-(pyridin-2-yl)piperazine-1-carboxamide]
151 nM	6 nM	Cn1ncc2cc(-c3cccc(N(Cc4ccc(C(=O)NO)cc4)C(=O)N4CCOCC4)c3)ccc21 [Compound 252, N-(4-(hydroxycarbamoyl)benzyl)-N-(3-(1-methyl-1H-indazol-5-yl)phenyl)morpholine-4-carboxamide]
